Measurements reported in ChEMBL document CHEMBL3885861, “Open TG-GATES”.

Organism: Rattus norvegicus
Experiment: Open TG-GATES - Regimen: Single
Assay type: toxicity, organism-based, Sprague-Dawley
Design: regimen Single, gender Male, age 6 weeks
Conditions: in vivo, iv, route intravenous injection; for K / LDH / Na / PL / RALB / TBIL / TC / TG / TP / gamma-GTP / A/G / ALP / ALT / AST / BUN / CRE / Ca / Cl / DBIL / GLC / IP: tissue Plasma; for APTT / Bas / Eos / Fbg / Hb / Ht / Lym / MCH / MCHC / MCV / Mono / Neu / PT / Plat / RBC / Ret / WBC: tissue Blood; for KIDNEY_L / KIDNEY_R / KIDNEY_TOTAL: tissue Kidney; for LIVER: tissue Liver
[1] = 3 mg/kg, 3 h, dose level Middle
[2] = 3 mg/kg, 6 h, dose level Middle
[3] = 3 mg/kg, 9 h, dose level Middle
[4] = 3 mg/kg, 24 h, dose level Middle

Q: For `C[C@@H]1C[C@@H]([C@H](O)CC2CC(=O)NC(=O)C2)C(=O)[C@@H](C)C1` [CYCLOHEXIMIDE], which K (1 mg/kg, 24 h, dose level Low) is on record?
A: 4.4 meq/L

Q: And the LDH (1 mg/kg, 24 h, dose level Low)?
A: 149.2 IU/L

Q: What about the Na (1 mg/kg, 24 h, dose level Low) of the same molecule?
A: 139.8 meq/L

Q: And the PL (1 mg/kg, 24 h, dose level Low)?
A: 110.4 mg/dL

Q: And the RALB (1 mg/kg, 24 h, dose level Low)?
A: 2.6 g/dL

Q: What about the TBIL (1 mg/kg, 24 h, dose level Low) of the same molecule?
A: 0.028 mg/dL

Q: And the TC (1 mg/kg, 24 h, dose level Low)?
A: 51.4 mg/dL

Q: What about the TG (1 mg/kg, 24 h, dose level Low) of the same molecule?
A: 169.6 mg/dL

Q: What about the TP (1 mg/kg, 24 h, dose level Low) of the same molecule?
A: 4.6 g/dL

Q: And the gamma-GTP (1 mg/kg, 24 h, dose level Low)?
A: 1.6 IU/L

Q: What about the TERMINAL_BW [1] of the same molecule?
A: 221.6 g

Q: What about the APTT [1] of the same molecule?
A: 22.4 s

Q: And the Bas [1]?
A: 0%

Q: What about the Eos [1] of the same molecule?
A: 0.6%

Q: And the Fbg [1]?
A: 296.6 mg/dL

Q: What about the Hb [1] of the same molecule?
A: 13.7 g/dL

Q: And the Ht [1]?
A: 41.1%

Q: What about the Lym [1] of the same molecule?
A: 73.2%

Q: What about the MCH [1] of the same molecule?
A: 21.6 pg

Q: What about the MCHC [1] of the same molecule?
A: 33.4%

Q: And the MCV [1]?
A: 64.6 fL

Q: What about the Mono [1] of the same molecule?
A: 0.8%

Q: And the Neu [1]?
A: 24.8%

Q: And the PT [1]?
A: 17.4 s

Q: What about the Plat [1] of the same molecule?
A: 132.2 x10_4/uL

Q: What about the RBC [1] of the same molecule?
A: 636.8 x10_4/ul

Q: What about the Ret [1] of the same molecule?
A: 9.2%

Q: What about the WBC [1] of the same molecule?
A: 217.3 x10_2/uL

Q: What about the KIDNEY_L [1] of the same molecule?
A: 1 g

Q: And the KIDNEY_R [1]?
A: 1 g

Q: And the KIDNEY_TOTAL [1]?
A: 2 g

Q: And the LIVER [1]?
A: 9.6 g

Q: What about the A/G [1] of the same molecule?
A: 1.3

Q: What about the ALP [1] of the same molecule?
A: 1376.2 IU/L

Q: What about the ALT [1] of the same molecule?
A: 58 IU/L

Q: And the AST [1]?
A: 140.8 IU/L

Q: What about the BUN [1] of the same molecule?
A: 32.6 mg/dL

Q: And the CRE [1]?
A: 0.1 mg/dL

Q: And the Ca [1]?
A: 9.8 mg/dL

Q: What about the Cl [1] of the same molecule?
A: 109.4 meq/L

Q: What about the DBIL [1] of the same molecule?
A: 0.004 mg/dL

Q: What about the GLC [1] of the same molecule?
A: 170.4 mg/dL

Q: And the IP [1]?
A: 9.8 mg/dL

Q: What about the K [1] of the same molecule?
A: 4.7 meq/L

Q: What about the LDH [1] of the same molecule?
A: 364.6 IU/L

Q: And the Na [1]?
A: 142.2 meq/L

Q: And the PL [1]?
A: 80 mg/dL

Q: What about the RALB [1] of the same molecule?
A: 2.8 g/dL

Q: What about the TBIL [1] of the same molecule?
A: 0.018 mg/dL

Q: And the TC [1]?
A: 59.4 mg/dL

Q: And the TG [1]?
A: 52.4 mg/dL

Q: And the TP [1]?
A: 5.1 g/dL

Q: And the gamma-GTP [1]?
A: 2 IU/L

Q: What about the TERMINAL_BW [2] of the same molecule?
A: 221.4 g

Q: What about the APTT [2] of the same molecule?
A: 25.3 s

Q: And the Bas [2]?
A: 0%

Q: What about the Eos [2] of the same molecule?
A: 0.4%

Q: And the Fbg [2]?
A: 276 mg/dL

Q: What about the Hb [2] of the same molecule?
A: 14.1 g/dL

Q: And the Ht [2]?
A: 42.1%

Q: What about the Lym [2] of the same molecule?
A: 60.4%

Q: What about the MCH [2] of the same molecule?
A: 21.2 pg

Q: And the MCHC [2]?
A: 33.6%

Q: What about the MCV [2] of the same molecule?
A: 63.1 fL

Q: What about the Mono [2] of the same molecule?
A: 1%

Q: What about the Neu [2] of the same molecule?
A: 38%

Q: And the PT [2]?
A: 21.1 s

Q: What about the Plat [2] of the same molecule?
A: 123.7 x10_4/uL

Q: And the RBC [2]?
A: 668 x10_4/ul

Q: What about the Ret [2] of the same molecule?
A: 8.3%

Q: And the WBC [2]?
A: 191.1 x10_2/uL

Q: And the KIDNEY_L [2]?
A: 1 g

Q: What about the KIDNEY_R [2] of the same molecule?
A: 1 g

Q: And the KIDNEY_TOTAL [2]?
A: 2 g

Q: And the LIVER [2]?
A: 8.6 g

Q: What about the A/G [2] of the same molecule?
A: 1.4

Q: What about the ALP [2] of the same molecule?
A: 1008.6 IU/L

Q: What about the ALT [2] of the same molecule?
A: 63 IU/L

Q: And the AST [2]?
A: 134.2 IU/L

Q: What about the BUN [2] of the same molecule?
A: 29.2 mg/dL

Q: And the CRE [2]?
A: 0.1 mg/dL

Q: And the Ca [2]?
A: 7.2 mg/dL

Q: What about the Cl [2] of the same molecule?
A: 104.2 meq/L

Q: And the DBIL [2]?
A: 0.006 mg/dL

Q: What about the GLC [2] of the same molecule?
A: 139.6 mg/dL

Q: What about the IP [2] of the same molecule?
A: 11.6 mg/dL

Q: What about the K [2] of the same molecule?
A: 4.2 meq/L

Q: And the LDH [2]?
A: 232.2 IU/L

Q: And the Na [2]?
A: 138.2 meq/L

Q: And the PL [2]?
A: 62.8 mg/dL

Q: What about the RALB [2] of the same molecule?
A: 2.8 g/dL

Q: What about the TBIL [2] of the same molecule?
A: 0.014 mg/dL

Q: And the TC [2]?
A: 39.6 mg/dL

Q: And the TG [2]?
A: 66.4 mg/dL

Q: And the TP [2]?
A: 4.9 g/dL

Q: And the gamma-GTP [2]?
A: 1.8 IU/L

Q: And the TERMINAL_BW [3]?
A: 215.9 g

Q: What about the APTT [3] of the same molecule?
A: 27.9 s

Q: And the Bas [3]?
A: 0%

Q: What about the Eos [3] of the same molecule?
A: 0.6%

Q: What about the Fbg [3] of the same molecule?
A: 255.2 mg/dL

Q: And the Hb [3]?
A: 13.6 g/dL

Q: And the Ht [3]?
A: 41%

Q: What about the Lym [3] of the same molecule?
A: 56.4%

Q: And the MCH [3]?
A: 21.1 pg

Q: What about the MCHC [3] of the same molecule?
A: 33.1%

Q: And the MCV [3]?
A: 63.7 fL

Q: What about the Mono [3] of the same molecule?
A: 1.2%

Q: And the Neu [3]?
A: 41.8%

Q: And the PT [3]?
A: 22.1 s

Q: And the Plat [3]?
A: 117.3 x10_4/uL

Q: What about the RBC [3] of the same molecule?
A: 643 x10_4/ul

Q: What about the Ret [3] of the same molecule?
A: 7.8%

Q: And the WBC [3]?
A: 199.4 x10_2/uL

Q: What about the KIDNEY_L [3] of the same molecule?
A: 1 g

Q: And the KIDNEY_R [3]?
A: 1 g

Q: What about the KIDNEY_TOTAL [3] of the same molecule?
A: 1.9 g

Q: What about the LIVER [3] of the same molecule?
A: 8.6 g

Q: What about the A/G [3] of the same molecule?
A: 1.5

Q: And the ALP [3]?
A: 1011.2 IU/L

Q: What about the ALT [3] of the same molecule?
A: 51.4 IU/L

Q: What about the AST [3] of the same molecule?
A: 111 IU/L

Q: What about the BUN [3] of the same molecule?
A: 20.8 mg/dL

Q: And the CRE [3]?
A: 0.1 mg/dL

Q: And the Ca [3]?
A: 8 mg/dL

Q: And the Cl [3]?
A: 105.6 meq/L

Q: What about the DBIL [3] of the same molecule?
A: 0.012 mg/dL

Q: And the GLC [3]?
A: 151.6 mg/dL

Q: What about the IP [3] of the same molecule?
A: 8.9 mg/dL

Q: And the K [3]?
A: 3.8 meq/L

Q: And the LDH [3]?
A: 189.4 IU/L

Q: And the Na [3]?
A: 139.4 meq/L

Q: And the PL [3]?
A: 75.8 mg/dL

Q: What about the RALB [3] of the same molecule?
A: 2.8 g/dL

Q: What about the TBIL [3] of the same molecule?
A: 0.012 mg/dL

Q: And the TC [3]?
A: 47.2 mg/dL

Q: And the TG [3]?
A: 70.2 mg/dL

Q: And the TP [3]?
A: 4.9 g/dL

Q: And the gamma-GTP [3]?
A: 1 IU/L

Q: And the TERMINAL_BW [4]?
A: 220.9 g

Q: What about the APTT [4] of the same molecule?
A: 30.4 s

Q: What about the Bas [4] of the same molecule?
A: 0%

Q: And the Eos [4]?
A: 0%

Q: What about the Fbg [4] of the same molecule?
A: 293.6 mg/dL

Q: What about the Hb [4] of the same molecule?
A: 13.2 g/dL

Q: And the Ht [4]?
A: 39.9%

Q: What about the Lym [4] of the same molecule?
A: 66.4%

Q: What about the MCH [4] of the same molecule?
A: 20.3 pg

Q: What about the MCHC [4] of the same molecule?
A: 33%

Q: What about the MCV [4] of the same molecule?
A: 61.6 fL

Q: What about the Mono [4] of the same molecule?
A: 1.4%

Q: What about the Neu [4] of the same molecule?
A: 30.8%

Q: What about the PT [4] of the same molecule?
A: 18.9 s

Q: And the Plat [4]?
A: 112.9 x10_4/uL

Q: What about the RBC [4] of the same molecule?
A: 647.6 x10_4/ul

Q: And the Ret [4]?
A: 5.3%

Q: What about the WBC [4] of the same molecule?
A: 276.2 x10_2/uL

Q: What about the KIDNEY_L [4] of the same molecule?
A: 1 g

Q: What about the KIDNEY_R [4] of the same molecule?
A: 1 g

Q: What about the KIDNEY_TOTAL [4] of the same molecule?
A: 2 g

Q: And the LIVER [4]?
A: 9.6 g

Q: And the A/G [4]?
A: 1.3

Q: And the ALP [4]?
A: 739.4 IU/L

Q: And the ALT [4]?
A: 25.2 IU/L

Q: And the AST [4]?
A: 65.8 IU/L

Q: And the BUN [4]?
A: 11 mg/dL

Q: What about the CRE [4] of the same molecule?
A: 0.2 mg/dL
